Laboratory results as given in patent US12103983B2, “Compound and angiogenic agent comprising same” (HiPep Laboratories, priority 2018, dated 2024).
Bridge positions count the residues as written; N and C are the ends. Square brackets hold non-standard residues; d marks the D form. Peptide text beside a SMILES is read from it. AEEA = NCCOCCOCC(=O)O

Test system: endogenous cellular enzyme
Experiment: Stability test against endogenous cellular enzyme (HUVEC cell lysate)
Format: in vitro ADME, human
Settings: 37° C., after 6 hours of the assay
Procedure: In order to test retention of the effect, and usefulness as a drug, each peptide was subjected to a stability test against endogenous cellular enzyme.
Human vascular endothelial cells (HUVECs (Human Umbilical Vein Endothelial Cells, Promocell GmbH.)) were used. Cryopreserved HUVECs were cultured for 2 days in Endothelial Cell Growth Medium (Promocell GmbH.). The cells were detached and collected by a conventional method using trypsin-EDTA, and washed with H2O, followed by addition of Lysis Buffer for Enzyme extraction (5 mL of TBS pH 7.5, 5 mL of Triton X100 (trade name), 40 mL of H2O with cOmplete mini, manufactured by Roche) thereto. The resulting mixture was left to stand on ice for 30 minutes to lyse the cells. The resulting cell lysate was centrifuged at 13,000 rpm at 4° C. for 3 min, and the supernatant was collected. The protein concentration was measured at A280 (Nano drop, Thermofischer scientific), and then adjusted to 2 mg/mL to prepare a protein solution for an assay.
In each of PCR tubes, 50 μL of each of four kinds of AGP solutions (2 mg/mL)+20 μL of the cell lysate (2 mg/mL)+30 μL of H2O were mixed together, and the resulting mixtures were incubated at 37° C. in an incubator for 0, 1, 3, or 6 hours. Thereafter, each mixture was heated in a hot water bath at 90° C. for 5 minutes to inactivate enzyme, and then subjected to LC-MS analysis. The remaining peptide was quantified based on the area value of the peak detected with UV 210 nm in LC.

Compound | remaining peptide / degradation (in words)
CC(C)CC(NC(=O)CNC(=O)C(Cc1ccccc1)NC(=O)C(NC(=O)C(NC(=O)C(CO)NC(=O)COCCOCCN)C(C)C)C(C)C)C(=O)NC(CCCNC(=N)N)C(N)=O (stereo not drawn) [AGP-O2Oc, O2Oc-SVVFGLR-NH2] (H-[AEEA]SVVFGLR-NH2; configuration not given here) | same level of stability
CC(C)CC1NC(=O)CNC(=O)C(Cc2ccccc2)NC(=O)C(C(C)C)NC(=O)C(C(C)C)NC(=O)C(CO)NC(=O)COCCOCCNC(=O)C(N)CSSCC(C(N)=O)NC(=O)CNC(=O)C(CCCNC(=N)N)NC1=O (stereo not drawn) [cAGP2, Cyclic(DCys-O2Oc-SVVFGLR-G-DCys)-NH2] (H-C[AEEA]SVVFGLRGC-NH2; disulfide 1-11; configuration not given here) | remained almost without degradation
CC(C)CC1NC(=O)CNC(=O)C(Cc2ccccc2)NC(=O)C(C(C)C)NC(=O)C(C(C)C)NC(=O)C(CO)NC(=O)COCCOCCNC(=O)C(N)CSSCC(C(N)=O)NC(=O)CNC(=O)C(CCCNC(=N)N)NC1=O (stereo not drawn) [cAGP3, Cyclic(Cys-O2Oc-SVVFGLR-G-Cys)-NH2] (H-C[AEEA]SVVFGLRGC-NH2; disulfide 1-11; configuration not given here) | remained almost without degradation
